Results: ChEMBL document CHEMBL1135360, “The design and synthesis of a novel series of indole derived selective ET(A) antagonists” (Bioorg Med Chem Lett, 2002)

What was measured:
[1] = target: T1, Endothelin receptor type B (Homo sapiens, UniProt P24530); test: Binding affinity towards human cloned endothelin B receptor by [125I]ET1 displacement.
T1 sequence (P24530 whole entry): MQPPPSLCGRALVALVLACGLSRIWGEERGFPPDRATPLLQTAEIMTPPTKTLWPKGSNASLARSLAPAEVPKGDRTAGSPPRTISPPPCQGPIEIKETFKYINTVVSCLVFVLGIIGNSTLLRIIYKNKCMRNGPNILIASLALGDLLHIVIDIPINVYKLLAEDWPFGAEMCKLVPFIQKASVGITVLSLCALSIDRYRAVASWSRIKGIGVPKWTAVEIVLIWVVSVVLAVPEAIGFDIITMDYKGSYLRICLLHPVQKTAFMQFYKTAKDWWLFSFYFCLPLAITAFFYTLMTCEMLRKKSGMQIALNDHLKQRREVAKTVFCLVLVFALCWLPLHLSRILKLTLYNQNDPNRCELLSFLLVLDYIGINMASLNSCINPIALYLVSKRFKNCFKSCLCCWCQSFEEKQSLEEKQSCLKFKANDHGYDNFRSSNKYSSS

Endothelin-1 receptor = target: T2, Endothelin-1 receptor (Homo sapiens, UniProt P25101); test: Displacement of [125I]-labeled ET-1 from human cloned endothelin A (ETA) receptor
T2 sequence (P25101 whole entry): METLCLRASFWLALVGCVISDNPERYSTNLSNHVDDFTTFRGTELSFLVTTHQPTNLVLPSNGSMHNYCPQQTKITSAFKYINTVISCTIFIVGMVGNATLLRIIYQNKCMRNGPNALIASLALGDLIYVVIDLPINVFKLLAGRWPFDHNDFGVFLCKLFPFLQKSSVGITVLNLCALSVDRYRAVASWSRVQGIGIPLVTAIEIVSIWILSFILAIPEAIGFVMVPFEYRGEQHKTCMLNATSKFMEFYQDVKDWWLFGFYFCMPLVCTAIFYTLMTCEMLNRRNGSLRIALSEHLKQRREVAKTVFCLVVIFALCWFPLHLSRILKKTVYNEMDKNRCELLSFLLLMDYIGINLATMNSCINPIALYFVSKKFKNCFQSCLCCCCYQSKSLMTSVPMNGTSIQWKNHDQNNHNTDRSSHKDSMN

[2] = target: Endothelin receptor, ET-A/ET-B (Homo sapiens) (UniProt P24530+P25101); test: Ratio of binding affinity at Endothelin-A receptors compared to Endothelin-B receptors.; format: protein assay

Structure (SMILES)	IC50 [1] [µM]	IC50 (Endothelin-1 receptor) [µM]	Ratio [2]
CCn1cc(C(C(=O)NS(=O)(=O)c2ccc(C(C)C)cc2)c2ccc3c(c2)OCO3)c2ccc(C(=O)O)cc21 (stereo unspecified)	2.2	0.032	68.8
CCn1cc(C(C(=O)NS(=O)(=O)c2ccc(C(C)C)cc2)c2ccc3c(c2)OCO3)c2ccc(C(N)=O)cc21 (stereo unspecified)	0.068	0.0035	19.7
COc1ccccc1S(=O)(=O)NC(=O)C(c1ccc2c(c1)OCO2)c1cn(C)c2cc(C(N)=O)ccc12 (stereo unspecified)	0.31	0.005	62
CCOc1cc(C)ccc1S(=O)(=O)NC(=O)C(c1ccc2c(c1)OCO2)c1cn(C)c2cc(C(N)=O)ccc12 (stereo unspecified)	0.397	0.00055	722
CC(C)c1ccc(S(=O)(=O)NC(=O)C(c2ccc3c(c2)OCO3)c2cn(C)c3cc(-c4nn[nH]n4)ccc23)cc1 (stereo unspecified)	–	0.035	–
CC(C)c1ccc(S(=O)(=O)NC(=O)C(c2ccc3c(c2)OCO3)c2cn(C)c3cc(C#N)ccc23)cc1 (stereo unspecified)	–	0.061	–
CCn1cc(C(C(=O)NS(=O)(=O)c2ccc(C(C)C)cc2)c2ccc3c(c2)OCO3)c2ccc(C(=O)NC)cc21 (stereo unspecified)	0.21	0.03	7
Cc1ccc(S(=O)(=O)NC(=O)C(c2ccc3c(c2)OCO3)c2cn(C)c3cc(C(N)=O)ccc23)cc1 (stereo unspecified)	0.774	0.0018	430
CC(C)c1ccc(S(=O)(=O)NC(=O)C(c2ccc3c(c2)OCO3)c2cn(C)c3cc(CN)ccc23)cc1 (stereo unspecified)	0.204	0.038	5.4
Cn1cc(C(C(=O)NS(=O)(=O)c2ccc(Cl)cc2)c2ccc3c(c2)OCO3)c2ccc(C(N)=O)cc21 (stereo unspecified)	1.1	0.0075	146

Further lines, results first:

IC50 [1] [µM]	IC50 (Endothelin-1 receptor) [µM]	Ratio [2]	Structure (SMILES)
1.06	0.0052	203	Cc1ccccc1S(=O)(=O)NC(=O)C(c1ccc2c(c1)OCO2)c1cn(C)c2cc(C(N)=O)ccc12 (stereo unspecified)
0.034	0.0023	14.8	CC(C)c1ccc(S(=O)(=O)NC(=O)C(c2ccc3c(c2)OCO3)c2cn(C)c3cc(C(N)=O)ccc23)cc1 (stereo unspecified)
0.45	0.019	23.7	CC(C)c1ccc(S(=O)(=O)NC(=O)C(c2ccc3c(c2)OCO3)c2cn(C)c3cc(CO)ccc23)cc1 (stereo unspecified)
0.474	0.072	6.6	CCn1cc(C(C(=O)NS(=O)(=O)c2ccc(C(C)C)cc2)c2ccc3c(c2)OCO3)c2ccc(C(=O)N(C)C)cc21 (stereo unspecified)
–	0.031	–	CC(C)c1ccc(S(=O)(=O)NC(=O)C(c2ccc3c(c2)OCO3)c2c[nH]c3cc(C(=O)O)ccc23)cc1 (stereo unspecified)
0.094	0.0028	34	COc1ccc(S(=O)(=O)NC(=O)C(c2ccc3c(c2)OCO3)c2cn(C)c3cc(C(N)=O)ccc23)cc1 (stereo unspecified)
2.57	0.012	184	Cn1cc(C(C(=O)NS(=O)(=O)c2ccccc2)c2ccc3c(c2)OCO3)c2ccc(C(N)=O)cc21 (stereo unspecified)
0.228	0.0065	35	Cn1cc(C(C(=O)NS(=O)(=O)c2ccc(C(F)(F)F)cc2)c2ccc3c(c2)OCO3)c2ccc(C(N)=O)cc21 (stereo unspecified)
0.016	0.0008	–	COc1cc(OC)nc(O[C@H](C(=O)O)C(OC)(c2ccccc2)c2ccccc2)n1 [DARUSENTAN]
1.5	0.022	68.2	CC(C)c1ccc(S(=O)(=O)NC(=O)C(c2ccc3c(c2)OCO3)c2cn(C)c3cc(C(=O)O)ccc23)cc1 (stereo unspecified)
0.302	0.0011	275	COc1cc(C)ccc1S(=O)(=O)NC(=O)C(c1ccc2c(c1)OCO2)c1cn(C)c2cc(C(N)=O)ccc12 (stereo unspecified)
–	0.1	–	COC(=O)c1ccc2c(C(C(=O)NS(=O)(=O)c3ccc(C(C)C)cc3)c3ccc4c(c3)OCO4)cn(C)c2c1 (stereo unspecified)
–	0.21	–	CCn1cc(C(C(=O)NS(=O)(=O)c2ccc(C(C)C)cc2)c2ccc3c(c2)OCO3)c2ccc(C(=O)OC)cc21 (stereo unspecified)
0.846	0.0031	272	Cn1cc(C(C(=O)NS(=O)(=O)c2ccccc2C(=O)O)c2ccc3c(c2)OCO3)c2ccc(C(N)=O)cc21 (stereo unspecified)
